Results on ten molecules are retold here after patent US20080139552A1, “INDOLES” (priority 2006, published 2008).

SMILES strings stand for the structures.

The assay deals with T1, human V1a receptor (Homo sapiens, UniProt P37288).
T1 construct: expressed in transfected cells; host or cells: HEK293 cells, transiently transfected; cell membranes
T1 sequence (P37288 whole entry): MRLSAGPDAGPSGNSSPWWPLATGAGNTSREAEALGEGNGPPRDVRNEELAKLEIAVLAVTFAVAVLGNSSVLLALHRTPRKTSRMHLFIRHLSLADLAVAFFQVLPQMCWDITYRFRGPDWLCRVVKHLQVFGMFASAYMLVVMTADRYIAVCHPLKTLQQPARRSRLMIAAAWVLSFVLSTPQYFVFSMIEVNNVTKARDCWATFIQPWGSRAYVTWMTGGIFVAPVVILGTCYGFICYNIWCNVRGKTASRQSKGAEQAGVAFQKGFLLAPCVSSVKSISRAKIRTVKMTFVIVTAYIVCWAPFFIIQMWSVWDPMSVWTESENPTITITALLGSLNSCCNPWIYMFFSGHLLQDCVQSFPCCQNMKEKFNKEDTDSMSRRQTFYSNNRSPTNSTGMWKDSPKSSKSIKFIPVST
In words: human V1a receptor binding (3H-Vasopressin SPA, HEK293 cell membranes). The note with it: membranes from HEK293 cells transiently transfected with human V1a receptor, Ki by Cheng-Prussoff, read-out: pki (hV1a) (converted). The protocol: The human V1a receptor was cloned by RT-PCR from total human liver RNA. The coding sequence was subcloned in an expression vector after sequencing to confirm the identity of the amplified sequence. […] Cell membranes were prepared from HEK293 cells transiently transfected with the expression vector and grown in 20 liter fermenters with the following protocol.
50 g of cells were resuspended in 30 ml freshly prepared ice cold Lysis buffer (50 mM HEPES, 1 mM EDTA, 10 mM MgCl2 adjusted to pH=7.4+complete cocktail of protease inhibitor (Roche Diagnostics)), homogenized with Polytron for 1 min, and sonicated on ice for 2×2 minutes at 80% intensity (Vibracell sonicator). The preparation was centrifuged 20 min at 500 g at 4° C., the pellet was discarded and the supernatant centrifuged 1 hour at 43,000 g at 4° C. (19,000 rpm). The pellet was resuspended in 12.5 ml Lysis buffer+12.5ml Sucrose 20% and homogenized using a Polytron for 1-2 min. The protein concentration was determined by the Bradford method and aliquots were stored at −80° C. until use. For binding studies 60 mg Yttrium silicate SPA beads (Amersham) were mixed with an aliquot of membrane in binding buffer (50 mM Tris, 120 mM NaCl, 5 mM KCl, 2 mM CaCl2, 10 mM MgCl2) for 15 minutes with mixing. 50 ul of bead/membrane mixture was then added to each well of a 96 well plate, followed by 50 ul of 4 nM 3H-Vasopressin (American Radiolabeled Chemicals). For total binding measurement 100 ul of binding buffer were added to the respective wells, for non-specific binding 100 ul of 8.4 mM cold vasopressin were added, and for compound testing 100 ul of a serial dilution of each compound in 2% DMSO were added. The plate was incubated 1 h at room temperature, centrifuged 1 min at 1000 g and counted on a Packard Top-Count. Non-specific binding counts were subtracted from each well and data was normalized to the maximum specific binding set at 100%. To calculate an IC 50 the curve was fitted using a non-linear regression model (XLfit) and the Ki was calculated using the Cheng-Prussoff equation.
As for `COc1cccc(OC)c1C1CCN(C(=O)c2cc3cccc(CC#N)c3[nH]2)CC1` [Example 8, {2-[4-(2,6-Dimethoxy-phenyl)-piperidine-1-carbonyl]-1H-indol-7-yl}-acetonitrile], the Ki is 86.1 nM.

As to `COc1cccc(OC)c1C1CCN(C(=O)c2cc3cc(Cl)ccc3[nH]2)CC1` [Example 5, (5-Chloro-1H-indol-2-yl)-[4-(2,6-dimethoxy-phenyl)-piperidin-1-yl]-methanone], the Ki was 40.7 nM.

Turning to `Cc1c(C(=O)N2CC=C(c3ccccc3)CC2)[nH]c2c(C)cccc12` [Example 12, (3,7-Dimethyl-1H-indol-2-yl)-(4-phenyl-3,6-dihydro-2H-pyridin-1-yl)-methanone], the Ki is 96.6 nM.

Take `O=C(c1cc2cc(Cl)cc(CN3CCOCC3)c2[nH]1)N1CCC(c2cccc3[nH]c(=O)oc23)CC1` [Example 2, 7-[1-(5-Chloro-7-morpholin-4-ylmethyl-1H-indole-2-carbonyl)-piperidin-4-yl]-3H-benzooxazol-2-one]: the Ki is 6.53 nM.

Take `COc1ccccc1C1CCN(C(=O)c2cc3cc(Cl)cc(CC#N)c3[nH]2)CC1` [Example 10, {5-Chloro-2-[4-(2-methoxy-phenyl)-piperidine-1-carbonyl]-1H-indol-7-yl}-acetonitrile]: the Ki was 45.7 nM.

With `COc1ccccc1C1CCN(C(=O)c2cc3cc(Cl)cc(CN4CCOCC4)c3[nH]2)CC1` [Example 11, (5-Chloro-7-morpholin-4-ylmethyl-1H-indol-2-yl)-[4-(2-methoxy-phenyl)-piperidin-1-yl]-methanone], the Ki is 54.3 nM.

On to `N#CCc1cc(Cl)cc2cc(C(=O)N3CCC(c4cccc5[nH]c(=O)oc45)CC3)[nH]c12` [Example 1, {5-Chloro-2-[4-(2-oxo-2,3-dihydro-benzooxazol-7-yl)-piperidine-1-carbonyl]-1H-indol-7-yl}-acetonitrile], for which the Ki was 12.9 nM.

With `COc1cccc(OC)c1C1CCN(C(=O)c2cc3cc(Cl)ccc3n2CC#N)CC1` [Example 7, {5-Chloro-2-[4-(2,6-dimethoxy-phenyl)-piperidine-1-carbonyl]-indol-1-yl}-acetonitrile], the Ki was 14 nM.

`COc1cccc(OC)c1C1CCN(C(=O)c2cc3cc(Cl)cc(CC#N)c3[nH]2)CC1` [Example 9, {5-Chloro-2-[4-(2,6-dimethoxy-phenyl)-piperidine-1-carbonyl]-1H-indol-7-yl}-acetonitrile]: the Ki is 19.5 nM.

As to `COc1cccc(OC)c1C1CCN(C(=O)c2cc3cc(Cl)ccc3n2CC(=O)N(C)C)CC1` [Example 6, 2-{5-Chloro-2-[4-(2,6-dimethoxy-phenyl)-piperidine-1-carbonyl]-indol-1-yl}-N,N-dimethyl-acetamide], the Ki is 50.1 nM.
